US20250170120A1, “ALLOSTERIC STING MODULATORS AND METHODS OF USE” (THE BOARD OF REGENTS OF THE UNIVERSITY OF TEXAS SYSTEM, priority 2022, published 2025)

Experiments:
Format in all cases: cell-based
STING [1] = biological target: T1, STING (Homo sapiens, UniProt Q86WV6, G230A/H232R/R293Q/R71H); experiment: Interferon production in THP-1 cells under basal conditions (no external stimulation); details: 32 μM compound; no external stimulation; THP-1 cells
T1 construct: host or cells: THP-1 / THP1-Dual / THP1-Lucia ISG cells
T1 sequence (Q86WV6 whole entry R71H/G230A/H232R/R293Q): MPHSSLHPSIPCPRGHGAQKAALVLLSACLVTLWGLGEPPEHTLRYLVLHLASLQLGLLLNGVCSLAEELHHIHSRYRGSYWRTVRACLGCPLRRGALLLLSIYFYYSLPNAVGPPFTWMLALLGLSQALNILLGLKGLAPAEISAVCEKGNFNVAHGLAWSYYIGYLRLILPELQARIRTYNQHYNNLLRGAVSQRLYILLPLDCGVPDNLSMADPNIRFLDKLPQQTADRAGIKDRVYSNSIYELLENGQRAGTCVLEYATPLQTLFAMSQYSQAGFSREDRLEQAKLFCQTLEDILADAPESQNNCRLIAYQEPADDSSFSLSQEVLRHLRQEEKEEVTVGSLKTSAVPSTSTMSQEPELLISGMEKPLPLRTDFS
Description: (§1) Methods of measuring STING activity and by extension, the activity of the compounds discussed herein, are known in the art. As an example, the STING pathway activity may be evaluated using reporter cell lines where a reporter gene (i.e., luciferase, GFP) is expressed under direct or indirect control of interferon response elements. For example, in an exemplary embodiment, the STING pathway can be measured using THP1-Dual™ cells (InvivoGen) which express the Lucia gene (a secreted luciferase reporter gene) under the control of an ISG54 minimal promoter in conjunction with five IFN-stimulated response elements. The STING pathway, when activated, stimulates interferon release which, in this model, will increase luciferase expression in a detectable manner. When inhibited, interferon release will be decreased, reducing luciferase expression in a detectable manner. The compounds can optionally be tested in the presence of external stimulation (i.e., using cGAMP, a natural agonist of STING, or MSA-2).
(§2) Compounds UT017, UT018, UT019 and UT0122 were tested for their ability to interfere with STING signaling. Interferon production in the presence of increasing concentrations of UT017, UT018, UT019 or UT0122 were measured in THP-1 cell lines under basal conditions. […] Compound UT0122 was further tested in THP1-Lucia™ ISG cells for interferon production at varying concentration, in the presence of an increasing dose of a STING agonist cGAMP.
The STING pathway activity was evaluated in THP1-Dual™ cells (Invivogen). 1.5×10^5 THP1-Dual™ cells were seeded in 96-well plates and treated with the test compound followed by cGAMP (100 uM) or MSA-2 (10 uM, Science 2020, 369, eaba6098) 2 hours later. After incubating at 37° C. for 16 hours, the luciferase activity was measured by QUANTI-Luc™ (Invivogen).

STING [2] = biological target: T1, STING; experiment: STING pathway activity in THP1-Dual/THP-1 cells upon cGAMP or MSA-2 stimulation (luciferase/interferon readout); details: THP-1 cells; for inhibition at 10 µM: 10 μM compound, cGAMP (100 μM) or MSA-2 (10 μM) stimulation; for Induction of interferon production in the presence of MSA2: 10 μM MSA2, increasing concentrations of compound
Description: as §1
The STING pathway activity was evaluated in THP1-Dual™ cells (Invivogen). […] After incubating at 37° C. for 16 hours, the luciferase activity was measured by QUANTI-Luc™ (Invivogen).

STING [3] = biological target: T1, STING; experiment: cGAMP dose-response IFN induction in the presence of increasing compound concentrations; details: FIGS. 16A-16D
Description: Compounds UT009, UT019, UT073 and UT122 were tested for their ability to interfere with cGAMP induced STING signaling. FIGS. 16A-16D show dose response plots of cGAMP induced IFN induction in the presence of increasing concentrations of each compound.
as §2

| Compound | Activity (inhibition under basal conditions) (STING [1]) | inhibition at 10 µM (STING [2]) [%] | further results |
| --- | --- | --- | --- |
| C[C@@H](NC(=O)c1ccc2c(c1)N(Cc1c(F)cccc1Cl)C(=O)C2(C)C)c1c(F)cc(F)cc1F [UT065, (R)-1-(2-chloro-6-fluorobenzyl)-3,3-dimethyl-2-oxo-N-(1-(2,4,6-trifluorophenyl)ethyl) indoline-6-carboxamide] | D* | – | – |
| C[C@H](NC(=O)c1ccc2c(c1)N(Cc1c(F)cccc1Cl)C(=O)C2(C)C)c1c(F)cc(F)cc1F [UT066, (S)-1-(2-chloro-6-fluorobenzyl)-3,3-dimethyl-2-oxo-N-(1-(2,4,6-trifluorophenyl)ethyl) indoline-6-carboxamide] | D* | – | – |
| CC1(C)C(=O)N(Cc2c(Cl)cccc2OCc2cc(F)cc(F)c2)c2cc(C(F)(F)F)ccc21 [UT071a, 1-(2-chloro-6-((3,5-difluorobenzyl)oxy)benzyl)-3,3-dimethyl-6-(trifluoromethyl)indolin-2-one] | – | – | inhibition at 32 µM (STING [1]): < 50% |
| CC1(C)C(=O)N(Cc2c(Cl)cccc2OCc2cc(F)cc(F)c2)c2cc(F)ccc21 [UT072, 1-(2-chloro-6-((3,5-difluorobenzyl)oxy)benzyl)-6-fluoro-3,3-dimethylindolin-2-one] | – | – | inhibition at 32 µM (STING [1]): < 50% |
| CC1(C)C(=O)N(Cc2c(Cl)cccc2Oc2cc(F)cc(F)c2)c2cc(C(F)(F)F)ccc21 [UT073, 1-(2-chloro-6-(3,5-difluorophenoxy)benzyl)-3,3-dimethyl-6-(trifluoromethyl) indolin-2-one] | – | < 50 | cGAMP induced IFN induction in the presence of increasing concentrations of compound (STING [3]): dose-dependent suppression of interferon production |
| CC1(C)C(=O)N(Cc2c(Cl)cccc2Oc2cc(F)cc(F)c2)c2cc(F)ccc21 [UT074, 1-(2-chloro-6-(3,5-difluorophenoxy)benzyl)-6-fluoro-3,3-dimethylindolin-2-one] | – | – | inhibition at 32 µM (STING [1]): < 50% |
| CC1(C)C(=O)N(Cc2c(F)cc(F)cc2F)c2cc(C(=O)NCc3cc4ccccc4o3)ccc21 [UT114, N-(benzofuran-2-ylmethyl)-3,3-dimethyl-2-oxo-1-(2,4,6-trifluorobenzyl)indoline-6-carboxamide] | D* | – | – |
| CC1(C)C(=O)N(Cc2c(F)cccc2F)c2cc(-c3ncc(-c4c(F)cc(F)cc4F)o3)ccc21 [UT115, 1-(2,6-difluorobenzyl)-3,3-dimethyl-6-(5-(2,4,6-trifluorophenyl)oxazol-2-yl)indolin-2-one] | D* | – | – |
| CC1(C)C(=O)N(Cc2c(F)cccc2F)c2cc(-c3coc(-c4cccc(F)c4)n3)ccc21 [UT117, 1-(2,6-difluorobenzyl)-6-(2-(3-fluorophenyl)oxazol-4-yl)-3,3-dimethylindolin-2-one] | D* | – | – |
| CC1(C)C(=O)N(Cc2c(F)cccc2F)c2cc(-c3cn(-c4ccccc4)nn3)ccc21 [UT118, 1-(2,6-difluorobenzyl)-3,3-dimethyl-6-(1-phenyl-1H-1,2,3-triazol-4-yl)indolin-2-one] | D* | – | – |
| CC1(C)C(=O)N(Cc2c(F)cc(F)cc2F)c2cc(C(=O)NCc3cc4cc(F)c(F)cc4o3)ccc21 [UT120, N-((5,6-difluorobenzofuran-2-yl)methyl)-3,3-dimethyl-2-oxo-1-(2,4,6-trifluorobenzyl) indoline-6-carboxamide] | D* | – | – |
| Cc1nn(C)c(CN2C(=O)C(C)(C)c3ccc(C(=O)NCc4cc5ccccc5s4)cc32)c1Br [UT121, N-(benzo[b]thiophen-2-ylmethyl)-1-((4-bromo-1,3-dimethyl-1H-pyrazol-5-yl)methyl)-3,3-dimethyl-2-oxoindoline-6-carboxamide] | D* | – | – |
| CC1(C)C(=O)N(Cc2c(F)cccc2C(N)=O)c2cc(C(=O)NCc3c(F)cc(F)cc3F)ccc21 [UT126, 1-(2-carbamoyl-6-fluorobenzyl)-3,3-dimethyl-2-oxo-N-(2,4,6-trifluorobenzyl) indoline-6-carboxamide] | – | < 50 | – |
| CC1(C)C(=O)N(Cc2c(F)cc(F)cc2F)c2cc(C(=O)NCc3cc4ccccc4[nH]3)ccc21 [UT141, N-((1H-indol-2-yl)methyl)-3,3-dimethyl-2-oxo-1-(2,4,6-trifluorobenzyl)indoline-6-carboxamide] | – | > 50 | Induction of interferon production in the presence of MSA2 (STING [2]): inhibited in a dose dependent manner |
| CC1(C)C(=O)N(Cc2c(F)cccc2C(F)(F)F)c2cc(C(=O)NCc3cc4ccccc4[nH]3)ccc21 [UT142, N-((1H-indol-2-yl)methyl)-1-(2-fluoro-6-(trifluoromethyl)benzyl)-3,3-dimethyl-2-oxoindoline-6-carboxamide] | – | > 50 | Induction of interferon production in the presence of MSA2 (STING [2]): inhibited in a dose dependent manner |
| CC1(C)C(=O)N(Cc2c(Oc3cc(F)cc(F)c3)cccc2C(F)(F)F)c2cc(C(F)(F)F)ccc21 [UT149, 1-(2-(3,5-difluorophenoxy)-6-(trifluoromethyl)benzyl)-3,3-dimethyl-6-(trifluoromethyl)indolin-2-one] | – | < 50 | – |

The next lines start with results.

| Activity (inhibition under basal conditions) (STING [1]) | inhibition at 10 µM (STING [2]) [%] | Compound | further results |
| --- | --- | --- | --- |
| – | < 50 | Cc1nn(C)c(CN2C(=O)C(C)[C@@H](C)c3ccc(C(=O)NCc4cc5ccccc5[nH]4)cc32)c1Br (stereo partly drawn) [UT151, (4R)-N-((1H-indol-2-yl)methyl)-1-((4-bromo-1,3-dimethyl-1H-pyrazol-5-yl)methyl)-3,4-dimethyl-2-oxo-1,2,3,4-tetrahydroquinoline-7-carboxamide] | – |
| – | < 50 | CC1C(=O)N(Cc2c(F)cccc2C(F)(F)F)c2cc(C(=O)NCc3c(F)cc(F)cc3F)ccc2[C@@H]1C (stereo partly drawn) [UT153, (4R)-1-(2-fluoro-6-(trifluoromethyl)benzyl)-3,4-dimethyl-2-oxo-N-(2,4,6-trifluorobenzyl)-1,2,3,4-tetrahydroquinoline-7-carboxamide] | – |
| – | > 50 | CC1C(=O)N(Cc2c(F)cc(F)cc2F)c2cc(C(=O)NCc3cc4ccccc4[nH]3)ccc2[C@@H]1C (stereo partly drawn) [UT156, (4R)-N-((1H-indol-2-yl)methyl)-3,4-dimethyl-2-oxo-1-(2,4,6-trifluorobenzyl)-1,2,3,4-tetrahydroquinoline-7-carboxamide] | – |
| – | < 50 | Cc1nn(C)c(CN2C(=O)C(C)(C)c3ccc(C(=O)NCc4cc5ccccc5[nH]4)cc32)c1C [UT157, N-((1H-indol-2-yl)methyl)-3,3-dimethyl-2-oxo-1-((1,3,4-trimethyl-1H-pyrazol-5-yl)methyl)indoline-6-carboxamide] | Induction of interferon production in the presence of MSA2 (STING [2]): inhibited in a dose dependent manner |
| – | < 50 | CC1C(=O)N(Cc2c(F)cccc2C(F)(F)F)c2cc(C(=O)NCc3cc4ccccc4[nH]3)ccc2[C@@H]1C (stereo partly drawn) [UT158, (4R)-N-((1H-indol-2-yl)methyl)-1-(2-fluoro-6-(trifluoromethyl)benzyl)-3,4-dimethyl-2-oxo-1,2,3,4-tetrahydroquinoline-7-carboxamide] | – |
| – | < 50 | Cc1nn(C)c(CN2C(=O)C(C)[C@@H](C)c3ccc(C(=O)NCc4cc5ccccc5[nH]4)cc32)c1C (stereo partly drawn) [UT160, (4R)-N-((1H-indol-2-yl)methyl)-3,4-dimethyl-2-oxo-1-((1,3,4-trimethyl-1H-pyrazol-5-yl)methyl)-1,2,3,4-tetrahydroquinoline-7-carboxamide] | – |
| – | > 50 | CC1(C)C(=O)N(Cc2c(Oc3cc(F)cc(F)c3)cccc2C(F)(F)F)c2cc(C#N)ccc21 [UT200, 1-(2-(3,5-difluorophenoxy)-6-(trifluoromethyl)benzyl)-3,3-dimethyl-2-oxoindoline-6-carbonitrile] | – |
| – | < 50 | CC1(C)C(=O)N(Cc2c(Oc3cc(F)cc(F)c3)cccc2C(F)(F)F)c2ccc(C#N)cc21 [UT201, 1-(2-(3,5-difluorophenoxy)-6-(trifluoromethyl)benzyl)-3,3-dimethyl-2-oxoindoline-5-carbonitrile] | – |
| – | < 50 | CC1(C)C(=O)N(Cc2c(Oc3cc(F)cc(F)c3)cccc2C(F)(F)F)c2ccc(C(F)(F)F)cc21 [UT202, 1-(2-(3,5-difluorophenoxy)-6-(trifluoromethyl)benzyl)-3,3-dimethyl-5-(trifluoromethyl)indolin-2-one] | – |
| – | > 50 | CC1(C)C(=O)N(Cc2c(Oc3cc(F)cc(F)c3)cccc2C(F)(F)F)c2cc3c(cc21)OCO3 [UT203, 5-(2-(3,5-difluorophenoxy)-6-(trifluoromethyl)benzyl)-7,7-dimethyl-5,7-dihydro-6H-[1,3]dioxolo[4,5-f]indol-6-one] | – |
